From ChEMBL document CHEMBL1201862, “PubChem BioAssay data set” (2004)
Activity calls are given as the source filed them.

Columns and labels:
[1] = viability of uninfected HEp-2 cells – cell-based, HTS, cytotoxicity control for RSV inhibitor project, dose response (AID 2410); format: functional; settings: human respiratory syncytial virus
CHO-K1 = test: (§1) Counterscreen for antagonists of the orexin 1 receptor (OX1R; HCRTR1): Homogeneous time resolved fluorescence (HTRF)-based cell-based dose response assay to identify antagonists of the parental CHO-K1 cell line. [Related pubchem assays (depositor defined):AID434989, AID435008, AID463079, AID485270, AID492963, AID492964, AID492965, AID493232, AID504699, AID504701]; format: functional; settings: Cricetulus griseus
[2] = as §1, with “Fluorescence-based” for “Homogeneous time resolved fluorescence (HTRF)-based”, “cell-based high throughput” for “cell-based”, “CHO” for “CHO-K1”; format: functional
[3] = biological target: Eukaryotic translation initiation factor 4E (Mus musculus, UniProt P63073); test: blockers of eIF4G binding by eIF4E – biochemical, TR-FRET, dose response (AID 855); format: functional;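 further: potency for disrupting eIF4E binding to eIF4GI seen as loss of FRET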
[4] = biological target: T1, Orexin/Hypocretin receptor type 1 (Homo sapiens, UniProt O43613); test: Homogeneous Time Resolved Fluorescence (HTRF)-based cell-based high throughput dose response assay for antagonists of the orexin 1 receptor (OX1R; HCRTR1). [Related pubchem assays (depositor defined):AID434989, AID435008, AID463079, AID485270, AID492963, AID492964, AID492965, AID493232, AID504717, AID504718]; format: functional
T1 sequence (O43613 whole entry): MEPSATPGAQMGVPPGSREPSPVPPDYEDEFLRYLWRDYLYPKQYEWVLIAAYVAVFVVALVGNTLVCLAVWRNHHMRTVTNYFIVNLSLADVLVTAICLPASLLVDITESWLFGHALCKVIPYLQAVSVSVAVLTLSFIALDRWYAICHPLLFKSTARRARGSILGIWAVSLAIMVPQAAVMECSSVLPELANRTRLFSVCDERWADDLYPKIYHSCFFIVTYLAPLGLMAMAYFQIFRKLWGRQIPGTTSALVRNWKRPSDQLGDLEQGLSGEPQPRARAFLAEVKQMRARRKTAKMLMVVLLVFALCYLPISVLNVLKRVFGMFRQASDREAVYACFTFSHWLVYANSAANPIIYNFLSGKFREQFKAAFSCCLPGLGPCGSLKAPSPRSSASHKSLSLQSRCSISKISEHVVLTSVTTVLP

[5] = biological target: T1, Orexin/Hypocretin receptor type 1; test: Fluorescence-based cell-based high throughput dose response assay for antagonists of the orexin 1 receptor (OX1R; HCRTR1). [Related pubchem assays (depositor defined):AID434989, AID435008, AID463079, AID485270, AID492963, AID492964, AID492965, AID493232, AID504717, AID504718]; format: functional
Orexin receptor type 2 [6] = biological target: T2, Orexin receptor type 2 (Homo sapiens, UniProt O43614); test: Counterscreen assay for antagonists of the orexin 1 receptor (OX1R; HCRTR1): Fluorescence-based cell-based dose response assay for antagonists of the orexin 2 receptor (OX2R; HCRTR2), run by assay provider.; format: functional
T2 sequence (O43614 whole entry): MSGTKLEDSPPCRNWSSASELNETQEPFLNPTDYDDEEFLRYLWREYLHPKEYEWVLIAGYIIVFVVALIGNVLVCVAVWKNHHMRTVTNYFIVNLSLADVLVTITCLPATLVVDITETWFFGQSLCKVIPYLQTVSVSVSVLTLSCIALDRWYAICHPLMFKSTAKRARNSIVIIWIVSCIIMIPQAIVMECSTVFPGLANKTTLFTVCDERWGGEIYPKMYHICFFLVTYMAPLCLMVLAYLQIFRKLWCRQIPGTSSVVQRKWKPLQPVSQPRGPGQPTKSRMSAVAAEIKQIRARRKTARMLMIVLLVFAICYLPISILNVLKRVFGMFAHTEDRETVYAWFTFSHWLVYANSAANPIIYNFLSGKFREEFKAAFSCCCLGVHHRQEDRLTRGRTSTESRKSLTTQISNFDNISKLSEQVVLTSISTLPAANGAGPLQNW

Orexin receptor type 2 [7] = biological target: T2, Orexin receptor type 2; test: Counterscreen assay for antagonists of the orexin 1 receptor (OX1R; HCRTR1): Homogeneous Time Resolved Fluorescence (HTRF)-based cell-based dose response assay for antagonists of the orexin 2 receptor (OX2R; HCRTR2), run by assay provider.; format: functional
[8] = biological target: Ras and Rab interactor 1/Tyrosine-protein kinase ABL1 (Homo sapiens, UniProt P00519+Q13671); format: functional;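 further: biochemical TR-FRET dose-response test measuring inhibition of binding between Rin1 and Abl proteins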
[9] = biological target: DNA repair and recombination protein RAD54-like (Homo sapiens, UniProt Q92698); test: RAD54 Holliday junction migration blockers – biochemical, fluorescence, cherry-picked samples, dose series, confirmation (AID 651657); format: functional
Cytochrome P450 2D6 = Cytochrome P450 2D6 (Homo sapiens, UniProt P10635);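 further: CYP2D6 member of a cytochrome P450 panel assay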
Cytochrome P450 3A4 = Cytochrome P450 3A4 (Homo sapiens, UniProt P08684);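 further: CYP3A4 tested as one member of a cytochrome P450 panel screen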
Steroidogenic factor 1 = Steroidogenic factor 1 (Homo sapiens, UniProt Q13285); test: Counterscreen for inverse agonists of the liver receptor homolog-1 (LRH-1; NR5A2): Luminescence-based cell-based high throughput dose response assay to identify inverse agonists of the Steroidogenic Factor 1 Nuclear Receptor (SF1; NR5A1).; format: functional
[10] = biological target: T3, Sentrin-specific protease 8 (Homo sapiens, UniProt Q96LD8); format: functional
T3 sequence (Q96LD8 whole entry): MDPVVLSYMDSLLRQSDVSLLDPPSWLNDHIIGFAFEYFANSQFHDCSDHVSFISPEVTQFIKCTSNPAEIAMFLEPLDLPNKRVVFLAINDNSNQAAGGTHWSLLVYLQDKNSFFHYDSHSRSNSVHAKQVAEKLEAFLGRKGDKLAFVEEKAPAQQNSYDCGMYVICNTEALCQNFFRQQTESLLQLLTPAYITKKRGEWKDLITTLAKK

[11] = biological target: T3, Sentrin-specific protease 8; format: functional; remark: listed apart in the source
cells [12] = format: functional, cell-based
cells [13] = format: functional, cell-based; remark: listed apart in the source
[14] = biological target: T4, Carboxy-terminal domain RNA polymerase II polypeptide A small phosphatase 1 (Homo sapiens, UniProt Q9GZU7); test: CTDSP1 inhibitors, concentration-response, biochemical, absorbance readout, ultra-high-throughput screen actives (AID 540297); format: functional
T4 sequence (Q9GZU7 whole entry): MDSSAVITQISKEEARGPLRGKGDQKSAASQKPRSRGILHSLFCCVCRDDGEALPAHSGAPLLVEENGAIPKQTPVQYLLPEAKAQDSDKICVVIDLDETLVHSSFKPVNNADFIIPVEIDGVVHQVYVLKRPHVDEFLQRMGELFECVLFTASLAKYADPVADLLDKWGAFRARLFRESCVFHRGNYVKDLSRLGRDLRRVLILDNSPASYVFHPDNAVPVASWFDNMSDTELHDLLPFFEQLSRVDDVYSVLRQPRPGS

[15] = biological target: Tyrosine-protein phosphatase non-receptor type 11 (Homo sapiens, UniProt Q06124); test: PTPN11 enzyme inhibitors – biochemical, selectivity assay for STEP inhibitor project, dose response (AID 602367); format: functional; settings: read-out: IC50_Mean
[16] = biological target: Tyrosine-protein phosphatase non-receptor type 5 (Homo sapiens, UniProt P54829); test: PTPN5 enzyme inhibition – biochemical, fluorescence intensity, uHTS hits, confirmation (AID 602372); format: functional; settings: read-out: IC50_Mean
[17] = biological target: Dual specificity protein phosphatase 3 (Homo sapiens, UniProt P51452); test: VHR phosphatase inhibition, dose response, selectivity assay for STEP inhibitor project, biochemical (AID 602374); format: functional; settings: read-out: IC50_Mean
[18] = biological target: T5, Methionyl-tRNA synthetase, putative (Trypanosoma brucei brucei, UniProt Q38C91); format: functional, Trypanosoma brucei brucei strain 927/4 GUTat10.1
T5 sequence (Q38C91 whole entry): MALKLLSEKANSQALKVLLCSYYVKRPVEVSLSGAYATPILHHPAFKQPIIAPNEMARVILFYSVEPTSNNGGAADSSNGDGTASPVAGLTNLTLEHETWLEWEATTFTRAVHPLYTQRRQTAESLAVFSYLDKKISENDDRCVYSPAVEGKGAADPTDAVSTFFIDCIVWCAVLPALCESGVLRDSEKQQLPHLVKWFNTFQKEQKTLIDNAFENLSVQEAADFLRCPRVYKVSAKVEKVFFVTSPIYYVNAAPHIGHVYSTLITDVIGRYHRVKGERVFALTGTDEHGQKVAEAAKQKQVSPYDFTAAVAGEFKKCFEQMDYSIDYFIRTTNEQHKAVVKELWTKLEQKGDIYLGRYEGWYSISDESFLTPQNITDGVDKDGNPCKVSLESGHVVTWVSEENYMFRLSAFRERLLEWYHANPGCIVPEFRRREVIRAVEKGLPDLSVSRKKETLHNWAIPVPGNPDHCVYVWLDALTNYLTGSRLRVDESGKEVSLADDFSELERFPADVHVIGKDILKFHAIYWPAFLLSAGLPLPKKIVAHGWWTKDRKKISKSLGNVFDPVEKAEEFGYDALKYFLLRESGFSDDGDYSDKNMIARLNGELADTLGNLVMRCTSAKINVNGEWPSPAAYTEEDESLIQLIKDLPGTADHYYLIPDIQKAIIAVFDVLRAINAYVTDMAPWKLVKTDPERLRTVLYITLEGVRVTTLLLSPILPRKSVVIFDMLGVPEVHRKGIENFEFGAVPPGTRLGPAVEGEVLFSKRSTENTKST

[19] = Counterscreen for inhibitors of Trypanosoma brucei methionyl tRNA synthetase (MetRS): Luminescence-based cell-based high throughput dose response assay to identify compounds that are cytotoxic to Jurkat human T lymphocyte cells.; format: functional
[20] = biological target: T5, Methionyl-tRNA synthetase, putative; format: functional, Trypanosoma brucei brucei strain 927/4 GUTat10.1; remark: listed apart in the source

Steroidogenic factor 1, sequence (Q13285 whole entry): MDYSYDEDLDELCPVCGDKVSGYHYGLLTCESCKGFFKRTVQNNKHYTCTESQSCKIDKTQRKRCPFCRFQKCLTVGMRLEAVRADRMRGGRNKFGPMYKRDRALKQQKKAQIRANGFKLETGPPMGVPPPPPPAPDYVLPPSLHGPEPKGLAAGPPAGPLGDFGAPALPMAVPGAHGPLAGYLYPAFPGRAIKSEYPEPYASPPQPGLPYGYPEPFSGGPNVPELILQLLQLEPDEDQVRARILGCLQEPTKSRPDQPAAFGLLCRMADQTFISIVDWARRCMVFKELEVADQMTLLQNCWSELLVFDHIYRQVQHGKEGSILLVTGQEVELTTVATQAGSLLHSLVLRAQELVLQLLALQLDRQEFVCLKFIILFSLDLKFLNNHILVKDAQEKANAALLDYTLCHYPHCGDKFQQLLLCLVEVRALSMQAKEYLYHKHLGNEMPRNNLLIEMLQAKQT
Tyrosine-protein phosphatase non-receptor type 5, sequence (P54829 whole entry): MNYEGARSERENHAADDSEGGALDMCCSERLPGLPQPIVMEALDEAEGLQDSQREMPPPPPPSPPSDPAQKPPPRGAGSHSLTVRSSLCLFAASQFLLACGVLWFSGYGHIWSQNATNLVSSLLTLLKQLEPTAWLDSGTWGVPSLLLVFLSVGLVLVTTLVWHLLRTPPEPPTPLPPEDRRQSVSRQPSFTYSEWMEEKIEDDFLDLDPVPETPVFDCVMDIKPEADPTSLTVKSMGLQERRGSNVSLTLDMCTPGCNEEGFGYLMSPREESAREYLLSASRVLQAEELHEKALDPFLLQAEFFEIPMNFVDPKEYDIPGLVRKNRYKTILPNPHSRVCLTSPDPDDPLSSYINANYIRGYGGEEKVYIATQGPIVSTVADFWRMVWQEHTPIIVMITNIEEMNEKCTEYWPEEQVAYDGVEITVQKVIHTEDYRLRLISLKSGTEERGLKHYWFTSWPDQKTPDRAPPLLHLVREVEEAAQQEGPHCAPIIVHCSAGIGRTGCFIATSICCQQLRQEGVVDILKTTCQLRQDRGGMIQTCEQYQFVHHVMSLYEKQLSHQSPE
DNA repair and recombination protein RAD54-like, sequence (Q92698 whole entry): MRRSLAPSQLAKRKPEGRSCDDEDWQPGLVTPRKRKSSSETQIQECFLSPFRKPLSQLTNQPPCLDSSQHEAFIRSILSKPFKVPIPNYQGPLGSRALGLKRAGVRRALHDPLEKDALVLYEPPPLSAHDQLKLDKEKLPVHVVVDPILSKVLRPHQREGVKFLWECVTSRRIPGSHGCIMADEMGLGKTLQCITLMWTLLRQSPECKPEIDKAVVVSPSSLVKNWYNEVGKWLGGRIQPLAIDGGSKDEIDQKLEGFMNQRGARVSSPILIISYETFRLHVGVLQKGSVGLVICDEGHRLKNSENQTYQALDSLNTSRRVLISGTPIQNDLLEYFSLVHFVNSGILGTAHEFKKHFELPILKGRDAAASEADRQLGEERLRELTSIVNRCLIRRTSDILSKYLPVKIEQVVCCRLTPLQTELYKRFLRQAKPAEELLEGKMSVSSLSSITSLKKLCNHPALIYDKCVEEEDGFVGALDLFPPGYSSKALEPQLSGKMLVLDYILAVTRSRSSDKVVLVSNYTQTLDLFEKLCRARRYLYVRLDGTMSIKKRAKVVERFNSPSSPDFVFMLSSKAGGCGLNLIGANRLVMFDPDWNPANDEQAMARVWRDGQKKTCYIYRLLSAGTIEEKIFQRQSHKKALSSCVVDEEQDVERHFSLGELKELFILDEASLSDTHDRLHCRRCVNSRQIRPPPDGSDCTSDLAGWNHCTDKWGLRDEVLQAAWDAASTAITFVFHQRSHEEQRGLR
Eukaryotic translation initiation factor 4E, sequence (P63073 whole entry): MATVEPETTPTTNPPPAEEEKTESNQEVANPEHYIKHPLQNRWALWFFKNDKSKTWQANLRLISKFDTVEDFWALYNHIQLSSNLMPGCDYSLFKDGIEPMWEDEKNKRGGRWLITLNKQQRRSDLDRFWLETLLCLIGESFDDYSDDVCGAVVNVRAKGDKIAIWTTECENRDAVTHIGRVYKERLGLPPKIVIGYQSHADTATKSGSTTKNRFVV
Dual specificity protein phosphatase 3, sequence (P51452 whole entry): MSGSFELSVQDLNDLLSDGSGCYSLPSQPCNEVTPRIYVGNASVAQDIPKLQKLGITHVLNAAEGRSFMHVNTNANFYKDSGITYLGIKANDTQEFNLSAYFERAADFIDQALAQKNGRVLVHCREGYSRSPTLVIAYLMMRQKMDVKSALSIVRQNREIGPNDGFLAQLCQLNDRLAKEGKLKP
Cytochrome P450 3A4, sequence (P08684 whole entry): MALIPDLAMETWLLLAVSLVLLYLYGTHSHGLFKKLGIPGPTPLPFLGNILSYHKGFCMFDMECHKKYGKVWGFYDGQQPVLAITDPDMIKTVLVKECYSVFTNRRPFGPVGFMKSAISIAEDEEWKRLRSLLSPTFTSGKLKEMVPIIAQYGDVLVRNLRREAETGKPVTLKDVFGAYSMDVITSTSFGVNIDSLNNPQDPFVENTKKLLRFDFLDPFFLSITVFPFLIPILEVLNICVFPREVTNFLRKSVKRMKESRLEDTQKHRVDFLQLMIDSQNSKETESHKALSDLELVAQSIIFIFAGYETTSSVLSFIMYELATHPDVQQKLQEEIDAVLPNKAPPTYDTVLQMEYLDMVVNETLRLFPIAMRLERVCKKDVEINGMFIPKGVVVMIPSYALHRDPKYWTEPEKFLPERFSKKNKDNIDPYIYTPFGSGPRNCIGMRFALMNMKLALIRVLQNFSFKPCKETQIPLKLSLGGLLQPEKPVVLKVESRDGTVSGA
Cytochrome P450 2D6, sequence (P10635 whole entry): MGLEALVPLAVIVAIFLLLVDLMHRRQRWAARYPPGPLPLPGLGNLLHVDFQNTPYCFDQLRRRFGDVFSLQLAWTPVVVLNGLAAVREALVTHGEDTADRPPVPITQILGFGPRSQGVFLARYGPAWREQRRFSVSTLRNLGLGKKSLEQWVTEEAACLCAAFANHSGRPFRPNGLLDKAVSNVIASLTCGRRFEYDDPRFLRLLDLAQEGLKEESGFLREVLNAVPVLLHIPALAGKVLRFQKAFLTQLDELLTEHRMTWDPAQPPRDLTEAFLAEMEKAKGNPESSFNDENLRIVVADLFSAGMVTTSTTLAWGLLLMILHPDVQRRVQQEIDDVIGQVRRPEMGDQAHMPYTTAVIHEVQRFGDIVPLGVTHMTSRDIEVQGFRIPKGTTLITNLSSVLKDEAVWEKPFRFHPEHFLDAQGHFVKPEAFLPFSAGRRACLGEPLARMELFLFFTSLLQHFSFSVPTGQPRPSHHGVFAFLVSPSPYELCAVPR
Tyrosine-protein phosphatase non-receptor type 11, sequence (Q06124 whole entry): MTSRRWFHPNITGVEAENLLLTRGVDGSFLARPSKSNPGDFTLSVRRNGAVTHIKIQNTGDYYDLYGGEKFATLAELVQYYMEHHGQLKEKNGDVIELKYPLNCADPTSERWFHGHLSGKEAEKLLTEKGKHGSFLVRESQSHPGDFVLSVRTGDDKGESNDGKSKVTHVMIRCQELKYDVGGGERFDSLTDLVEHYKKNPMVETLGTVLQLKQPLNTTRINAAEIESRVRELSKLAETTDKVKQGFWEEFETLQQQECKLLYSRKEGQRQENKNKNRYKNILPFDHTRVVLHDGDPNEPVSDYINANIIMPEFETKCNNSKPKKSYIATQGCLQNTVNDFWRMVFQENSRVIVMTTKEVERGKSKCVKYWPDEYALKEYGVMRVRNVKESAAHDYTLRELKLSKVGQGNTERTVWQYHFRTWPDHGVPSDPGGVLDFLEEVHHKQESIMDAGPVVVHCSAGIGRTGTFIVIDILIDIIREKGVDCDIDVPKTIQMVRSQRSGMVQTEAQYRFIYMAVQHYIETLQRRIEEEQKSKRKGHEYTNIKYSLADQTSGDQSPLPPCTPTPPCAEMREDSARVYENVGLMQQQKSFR

Question: Which results are given for `Cc1cnc(NC(=O)c2ccc(-c3nc4ccccc4s3)o2)s1`?
Answer: CC50 [1]: 30.7 µM (active); IC50 (CHO-K1): 62 µM (inactive); IC50 [2]: > 49.8 µM (inactive); IC50 [3]: > 64 µM (inactive); IC50 [4]: 0.333 µM (active); IC50 [5]: 1.97 µM (active); IC50 (Orexin receptor type 2 [6]): > 88.8 µM (inactive); IC50 (Orexin receptor type 2 [7]): > 50 µM (inactive)

Question: With `COc1ccc(S(=O)(=O)N2CCCCCC2)cc1C(=O)Nc1ccc(C(=O)N(C)C)cc1` as the compound, how does the IC50 [8] read?
Answer: 8.07 µM (active)

Question: Which AC50 [9] does the source give for `CCN1CCN(c2nn3c(=O)c4ccccc4nc3c3ccccc23)CC1` here?
Answer: 19.9 µM (active)

Question: What about the AC50 (Cytochrome P450 2D6) of the same compound?
Answer: 14.1 µM (inconclusive)

Question: What about the AC50 (Cytochrome P450 3A4) of the same compound?
Answer: 20 µM (inconclusive)

Question: With `COc1cccc(N2CCN(CC(=O)Nc3ccc(-n4cnnn4)cc3)CC2)c1` as the compound, how does the IC50 (Steroidogenic factor 1) read?
Answer: 6.28 µM (active)

Question: Which results are given for `COC(=O)CCCC1=CC2=C(c3ccccc3)C(=O)C(C)(OC(=O)C3CCCC3)C(=O)C2=CN1C1CCCCC1` (centres undefined)?
Answer: IC50 [10]: 13 µM (active); IC50 [11]: 6.2 µM (active)

Question: Which EC50 (cells [12]) does the source give for `O=C(N/N=C/c1ccc(F)cc1)c1cc(-c2ccc3c(c2)OCO3)[nH]n1` here?
Answer: > 350 µM (not active)

Question: And the EC50 (cells [13])?
Answer: > 350 µM (not active)

Question: And the IC50 [14]?
Answer: 9.8 µM (active)

Question: What about the IC50 [15] of the same compound?
Answer: 5.14 µM (active)

Question: And the IC50 [16]?
Answer: > 80 µM (inactive)

Question: And the IC50 [17]?
Answer: 6.61 µM (active)

Question: Which IC50 [18] does the source give for `O=C(CCCSc1ccc(Cl)cc1)Nc1ccccc1O` here?
Answer: 24.1 µM (inactive)

Question: And the IC50 [19]?
Answer: 0.158 µM (active)

Question: What about the IC50 [20] of the same compound?
Answer: 24.8 µM (inactive)
